Test results taken from article PMC9663589, “Anti-tumor effects of P-LPK-CPT, a peptide-camptothecin conjugate, in colorectal cancer” (Communications Biology, 2022).
“Also recorded” adds a separate entry of the source. No end group written: not given here.

How the values were obtained:
[1] = test system: HCT116 cells; assay: Glutamine competition experiment (FITC-P-LPK uptake); type: cell-based, human; settings: 0–32 mM glutamine, 37 °C, 2 h
Protocol: Then these cells were washed with ice-cold PBS three times gently, suspended in PBS and transferred to a 96-well costar plate. The fluorescence intensity was measured in a multi-well plate reader (BioTek synergy4).

[2] = in vivo; design: species or system human xenograft in BALB/c nude mice; settings: female, BALB/c nude, mouse, iv, 3.7 MBq, total radioactivity, T/NT ratio
Protocol: (§1) To obtain ^68Ga, 0.1 M HCl was used to elute a ^68Ge-^68Ga generator. The radioactivity of eluate was monitored. The radioactive elution peak was collected for ^68Ga radiolabeling experiment. An aliquot of 150 μg of compound P-LPK or P-CON was put in a glass vial and dissolved with 0.2 M sodium acetate/acetic acid buffer, pH 3.8. Then ^68GaCl3 tracer was added, and the pH was adjusted to fall in a range of 3.5~4 with 0.1 M NaOH. The solution was stored at room temperature for 0.5 h. The radiochemical purities of ^68Ga-P-LPK and ^68Ga-P-CON were measured with thin-layer chromatography (TLC), using silica gel-impregnated glass fiber stripe (iTLC SG) and 0.25 M sodium citrate/citric acid buffer as mobile phase. ^68GaCl3 was used as a control.
(§2) Each U87 and HCT116 tumor-bearing mouse was injected in a tail vein with 3.7 MBq (100 μCi, 0.1 nmol in 100 μl) of ^68Ga-P-LPK or ^68Ga-P-CON under isoflurane anesthesia (n = 4 per group). For static PET, 5-min scans were acquired at 30 min, 60 min, and 120 min after injection. The maximum radioactivity concentrations within a tumor or an organ were obtained from mean pixel values within the multiple regions of interest (ROI) volume.

[3] = test system: U87 tumors; assay: in vivo; design: species or system human xenograft in BALB/c nude mice; settings: female, BALB/c nude, mouse, iv, 3.7 MBq, 2 h
Protocol: as §1, §2

[4] = in vivo; design: species or system human xenograft in BALB/c nude mice; settings: female, BALB/c nude, mouse, iv, 3.7 MBq, total radioactivity, T/NT ratio; remark: listed apart in the source
Protocol: as §1, §2
For the blocking experiment, unlabeled P-LPK was first injected into mice (n = 3 per group), and 3.7 MBq ^68Ga-P-LPK was then injected. Static PET images were acquired at 30 min, 60 min and 120 min post-injection.

[5] = test system: Plasminogen activator inhibitor 1 precursor (PAI1); settings: MDA-MB-231, bioinformatics analysis; cited from earlier work
From the text: (§3) The specific binding mechanisms of a peptide to a cell is presumably by its binding to a given receptor expressed at the cell membrane.

[6] = test system: human CRC cell lines; settings: earlier phage display study; cited from earlier work
From the text: The phage display technique is a powerful tool to identify novel targeting peptides in researches and clinics[10]–[12]. By screening whole cells, it is able to identify short peptides that interact with cell surface molecules.

[7] = test system: CRC cells; settings: conjugated to CPT
[8] = test system: human CRC cell lines; assay: Peptide binding to a panel of human CRC cell lines; type: cell-based; settings: confocal imaging, in contrast to NCM460; FITC-labeled
Protocol: NCM460, Colo320HSR, HCT116, LoVo, HT29 and SW480 cells were respectively incubated with FITC-labeled P-LPK (Random peptide P-CON) peptides for 2 h at 37 °C and washed with PBS for three times. The cells were fixed with 4% paraformaldehyde for 30 min at room temperature, and then 4,6-diamidino-2-phenylindole (DAPI) was used for nucleic acid stain. A laser scanning confocal microscope was used to visualize the cells. The fluorescence intensity was analyzed using the Image-Pro Plus 6.0 software. For cell localization experiment, 20 μg/ml rhodamine-labeled peptides were incubated with NCM460 and HCT116 for 2 h, and then washed with PBS for three times. After that, the cell membrane was stained with a blue cell membrane probe (Thermo Fisher Scientific, Cat. No. W11263). The binding of Rhodamine-P-LPK to cells and their localization in cells was observed under a confocal microscope.

[9] = test system: SLC1A5 in HT29 cells; assay: FITC-P-LPK binding after SLC1A5 knockdown; type: cell-based, human; settings: si-SLC1A5, 48 h
Protocol: (§4) Fig. 6 P-LPK bound to SLC1A5 and entered CRC cells through endocytosis. a, b Western blotting analysis of SLC1A5 in NCM460, HCT116, LoVo, SW480, HT29 and Colo320HSR cells. After knocking down SLC1A5 in HCT116 and HT29, the binding intensity of FITC-P-LPK to cells was observed by confocal microscopy. Bar, 10 μm. c, d Effects of different endocytosis inhibitors on the internalization of FITC-P-LPK. HCT116 cells were pre-treated with 10 µM chlorpromazine, 50 μM methyl-β-cyclodextrin, 20 µM Amiloride hydrochloride for 30 min at 37 °C. Subsequently, the cells were incubated with FITC-P-LPK for 2 h. Then the fluorescence intensity was observed by confocal microscopy and detected using a multi-well plate reader (n = 5, means ± SD, NC vs CPZ, p = 0.0001; NC vs MβCD, p = 0.9069; NC vs EIPA, p = 0.9812) (****p < 0.0001). Bar, 10 μm. e The competition experiment with SLC1A5 substrates glutamine. FITC-P-LPK was incubated with increasing concentrations (0–32 mM) of glutamine in HCT116 cells at 37 °C for 2 h. The fluorescence intensity was measured in a multi-well plate reader (n = 5, means ± SD). […]
(§5) Primary antibodies against SLC1A5 (Abcam,  Cat No. ab237704,1:1000) and secondary antibodies labeled with HRP (YEASEN, 33701ES60, China,1:5000) was applied. Signals were detected using ECL Kit (Pierce Biotech, Rockford, IL). β-Actin (Sigma,USA, A5441) was performed as an internal control.

[10] = test system: SLC1A5 in HCT116 cells; assay: FITC-P-LPK binding after SLC1A5 knockdown; type: cell-based, human; settings: si-SLC1A5, 48 h
Protocol: as §4, §5

[11] = test system: α-2-macroglobulin; settings: androgen-independent prostate cancer cells; cited from earlier work
From the text: as §3

[12] = test system: Metalloproteinase Inhibitor 1 (TIMP-1); settings: MDA-MB-231, bioinformatics analysis; cited from earlier work
From the text: as §3

[13] = test system: 78 kDa glucose-regulated protein; settings: androgen-independent prostate cancer cells; cited from earlier work
From the text: as §3

Which “Effect on uptake of FITC-P-LPK” value [1] does the source give for `NC(=O)CC[C@H](N)C(=O)O` [glutamine] here?
Its value is “does not affect the uptake of P-LPK”.

Which tissue to tissue ratio at 0.5 h [2] does the source give for “DLPSRTSALASG [68Ga-P-CON, metal not drawn]” here?
Its tissue to tissue ratio at 0.5 h is 1.75.

And the tissue to tissue ratio at 1 h [2]?
Its tissue to tissue ratio at 1 h is 1.56.

What about the tissue to tissue ratio at 2 h [2] of the same compound?
The tissue to tissue ratio at 2 h was 1.33.

And the T/NT ratio [3]?
The T/NT ratio was 1.28.

What about the tissue to tissue ratio at 0.5 h [4] of the same compound?
Its tissue to tissue ratio at 0.5 h is 1.58.

What about the tissue to tissue ratio at 1 h [4] of the same compound?
Its tissue to tissue ratio at 1 h is 1.49.

And the tissue to tissue ratio at 2 h [4]?
Its tissue to tissue ratio at 2 h is 1.37.

With “DTFNSFGRVRIE [peptide targeting MDA-MB-231]” as the compound, how does the Targeting [5] read?
The Targeting was “specifically targeted”.

Which “Binding to CRC cells” value [6] does the source give for DWSSWVYRDPQT [CBP-DWS] here?
The value was “selectively bound to CRC cells”.

What about the “Improvement of CPT killing when used as targeting vector” value [7] of the same compound?
Its value is “did not improve the targeted killing ability”.

For “FITC-P-LPK (LPKTVSSDMSLN; also: FITC label, position not given here)”, which “FITC-peptide binding to CRC cells” value [8] is on record?
Its value is “stronger green fluorescence in CRC cells than normal NCM460 cells; also recorded: abundant binding capacity to human CRC cell lines”.

What about the “Fluorescence after SLC1A5 knockdown” value [9] of the same compound?
Its value is “reduction of the fluorescence”.

And the “Fluorescence after SLC1A5 knockdown” value [10]?
The value was “reduction of the fluorescence”.

Which Binding [11] does the source give for “PKRGFQD [peptide targeting androgen-independent prostate cancer cells]” here?
Its Binding is “bind specifically to α-2-macroglobulin”.

With PRWAVSP [peptide targeting MDA-MB-231] as the compound, how does the Targeting [12] read?
Its Targeting is “specifically targeted Metalloproteinase Inhibitor 1 (TIMP-1)”.

Which Binding [13] does the source give for “SNTRVAP [peptide targeting androgen-independent prostate cancer cells]” here?
The Binding was “bind specifically”.
